Experimental data: publication PMC8807399, “Synthesis, Characterization, and in vivo Evaluation of a Novel Potent Autotaxin-Inhibitor” (Frontiers in Pharmacology, 2022)

Tests used:
[1] = test system: Sodium channel (site 2); test: Off-target screen Sodium channel (site 2); details: 10 µM; single point, duplicates
[2] = molecular target: T1, Xanthine oxidase (Bos taurus, UniProt P80457); test: Off-target screen Xanthine oxidase; assay type: biochemical, b; details: 10 µM; single point, duplicates
T1 construct: purchased Eurofins CEREP SA

[3] = molecular target: T2, LPA1 receptor (Homo sapiens, UniProt Q92633); test: Off-target screen LPA1 receptor; details: 10 µM; single point, duplicates
T2 construct: purchased Eurofins CEREP SA

[4] = molecular target: T3, Cyclooxygenase 2 (Homo sapiens, UniProt P35354); test: Off-target screen Cyclooxygenase 2; assay type: biochemical; details: 10 µM; single point, duplicates
T3 construct: purchased Eurofins CEREP SA

[5] = In vitro microsomal stability, mouse; assay type: in vitro ADME; details: mouse microsomes, 1 µM; value of 10 = low clearance, essentially below detection limit
Protocol: Incubations of a test compound at a concentration of 1 µM with microsomes (0.5 mg/ml) from the appropriate species (human, mouse, or rat) plus cofactor NADPH were performed in 96-well plates at 37°C on a TECAN automated liquid handling system (Tecan Group Ltd., Männedorf, Switzerland). After pre-incubation of the test compound with the microsomes for 10 min, the enzymatic reaction was started by the addition of cofactors. Aliquots of the incubations are removed at 1, 3, 6, 9, 15, 25, 35, and 45 min and are then quenched with 1:3 (v/v) acetonitrile containing internal standards. Samples were then cooled and centrifuged before analysis of the supernatant by LC-MS/MS. Logarithmic Peak area ratios (test compound peak area/internal standard peak area) were plotted against incubation time and a linear fit made to the data with emphasis upon the initial rate of compound disappearance. The slope of the fit was then used to calculate the intrinsic clearance: Clint (µL/min/mg protein) = −slope (min-1) * 1,000/[protein concentration (mg/ml)].

[6] = molecular target: T4, Somatostatin receptor 4 (Homo sapiens, UniProt P31391); test: Off-target screen Somatostatin receptor 4; assay type: binding; details: 10 µM; single point, duplicates
T4 construct: purchased Eurofins CEREP SA

[7] = molecular target: T5, Muscarinic receptor M2 (Homo sapiens, UniProt P08172); test: Off-target screen Muscarinic M2; assay type: binding; details: 10 µM; single point, duplicates
T5 construct: purchased Eurofins CEREP SA

[8] = molecular target: T6, Alpha1A-adrenoreceptor (Homo sapiens, UniProt P35348); test: Off-target screen Alpha1A-adrenoreceptor; assay type: binding; details: 10 µM; single point, duplicates
T6 construct: purchased Eurofins CEREP SA

[9] = molecular target: T7, CDK2 (Homo sapiens, UniProt P24941); test: Off-target screen CDK2; assay type: biochemical; details: 10 µM; single point, duplicates
T7 construct: purchased Eurofins CEREP SA

[10] = test system: PCP receptor; test: Off-target screen PCP receptor; details: 10 µM; single point, duplicates
[11] = molecular target: T8, 5HT2B (Homo sapiens, UniProt P41595); test: Off-target screen 5HT2B; assay type: binding; details: 10 µM; single point, duplicates
T8 construct: purchased Eurofins CEREP SA

[12] = molecular target: T9, S1P2 (Homo sapiens, UniProt O95136); test: Off-target screen S1P2, agonist mode; assay type: cell-based; details: 10 µM, single point, duplicates
T9 construct: purchased Eurofins CEREP SA

[13] = molecular target: T10, S1P3 (Homo sapiens, UniProt Q99500); test: Off-target screen S1P3, antagonist mode; assay type: cell-based; details: 10 µM, single point, duplicates
T10 construct: purchased Eurofins CEREP SA

[14] = molecular target: T11, Norepinephrine transporter (Homo sapiens, UniProt P23975); test: Off-target screen Norepinephrine transporter; assay type: binding; details: 10 µM; single point, duplicates
T11 construct: purchased Eurofins CEREP SA

[15] = molecular target: T12, ACE (Homo sapiens, UniProt P12821); test: Off-target screen ACE; assay type: biochemical; details: 10 µM; single point, duplicates
T12 construct: purchased Eurofins CEREP SA

[16] = molecular target: T13, Carbonic anhdrase II (Homo sapiens, UniProt P00918); test: Off-target screen Carbonic anhydrase II; assay type: biochemical; details: 10 µM; single point, duplicates
T13 construct: purchased Eurofins CEREP SA

[17] = test system: Ca2^+ channel (diltiazem site); test: Off-target screen Ca2+ channel (diltiazem site); details: 10 µM; single point, duplicates
[18] = molecular target: T14, Adenosine A1 respetor (Homo sapiens, UniProt P30542); test: Off-target screen Adenosine A1; assay type: binding; details: 10 µM; single point, duplicates
T14 construct: purchased Eurofins CEREP SA

[19] = Single dose PK in rats; assay type: in vivo; details: rat
Protocol: Exposures in animals treated with ATX-inhibitors were determined from K2EDTA treated plasma by LC-MS/MS at different time points. 25 µL of plasma was used for a single concentration determination. Concentration/time profiles were analyzed with MS Excel (Microsoft Corporation, Redmond, WA, United States).
For PK experiments for 7, 13, 14, and 15, respectively, animals were treated either iv or po and exposures were determined at different time points after compound administration. Suitable formulations for 13 were, for example, NMP:Tris buffer pH 8.5 (30%/70%) for iv administration with a nominal drug concentration of 1 mg/ml (dose 2 mg/kg) and a suspension in NMP:gelatine/NaCl (10%/90%) for po administration with a nominal drug concentration of 2.5 mg/ml (dose 10 mg/kg). PK parameters in Table 2 were estimated from the concentration time profiles using Phoenix WinNonlin software (Certara, Princeton, NJ, United States).

[20] = test system: HIV-1 protease; test: Off-target screen HIV-1 protease; details: 10 µM; single point, duplicates
[21] = molecular target: T9, S1P2; test: Off-target screen S1P2, antagonist mode; assay type: cell-based; details: 10 µM, single point, duplicates
[22] = molecular target: T15, Histamine H3 receptor (Homo sapiens, UniProt Q9Y5N1); test: Off-target screen Histamine H3; assay type: binding; details: 10 µM; single point, duplicates
T15 construct: purchased Eurofins CEREP SA

[23] = molecular target: T16, ZAP70 (Homo sapiens, UniProt P43403); test: Off-target screen ZAP70; assay type: biochemical; details: 10 µM; single point, duplicates
T16 construct: purchased Eurofins CEREP SA

[24] = molecular target: T17, Prostaglandin F receptor (Homo sapiens, UniProt P43088); test: Off-target screen Prostaglandin F receptor; assay type: binding; details: 10 µM; single point, duplicates
T17 construct: purchased Eurofins CEREP SA

[25] = molecular target: T18, Beta1-adrenoreceptor (Homo sapiens, UniProt P08588); test: Off-target screen Beta1-adrenoreceptor; assay type: binding; details: 10 µM; single point, duplicates
T18 construct: purchased Eurofins CEREP SA

[26] = molecular target: T19, Alpha2A-adrenoreceptor (Homo sapiens, UniProt P08913); test: Off-target screen Alpha2A-adrenoreceptor; assay type: binding; details: 10 µM; single point, duplicates
T19 construct: purchased Eurofins CEREP SA

[27] = molecular target: plasma ATX (Rattus norvegicus, UniProt Q64610); test: in vivo
Protocol: Plasma samples were collected in triplicates at 0, 1, 3, 6, and 24 h and were added to heparinated tubes and kept at 0°C until further processing. Sampling and immediate processing at 0°C is crucial for the measurements of basal levels, since at higher temperatures, LPA is produced rapidly according to the ATX activity in the sample. […] The other 2 aliquots were used to determine ATX activity by incubation of the sample at 37°C for 4 h, followed again by analysis of LPA levels in the same way as for the basal LPA levels.
For all doses (3, 10, and 30 mg/kg po), 5 animals/group were used. […] Values are mean ± SD.
To better observe the modulation of the individual LPA species, a second set of plasma samples was incubated at 37°C for 2 h prior to LC/MS analysis.

[28] = plasma, po, 20 mg/kg/day, food admix (FA), 20 mg/kg per day

T9 sequence (O95136 whole entry): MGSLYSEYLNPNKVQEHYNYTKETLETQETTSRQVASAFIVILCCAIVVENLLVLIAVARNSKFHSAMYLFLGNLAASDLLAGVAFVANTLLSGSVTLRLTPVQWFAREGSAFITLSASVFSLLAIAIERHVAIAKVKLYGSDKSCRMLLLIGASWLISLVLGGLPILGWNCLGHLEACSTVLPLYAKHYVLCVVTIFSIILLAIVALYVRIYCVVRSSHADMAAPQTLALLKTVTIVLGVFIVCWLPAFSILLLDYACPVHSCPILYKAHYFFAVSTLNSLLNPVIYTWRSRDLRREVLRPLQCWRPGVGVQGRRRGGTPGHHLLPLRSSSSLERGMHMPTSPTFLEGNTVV
T6 sequence (P35348 whole entry): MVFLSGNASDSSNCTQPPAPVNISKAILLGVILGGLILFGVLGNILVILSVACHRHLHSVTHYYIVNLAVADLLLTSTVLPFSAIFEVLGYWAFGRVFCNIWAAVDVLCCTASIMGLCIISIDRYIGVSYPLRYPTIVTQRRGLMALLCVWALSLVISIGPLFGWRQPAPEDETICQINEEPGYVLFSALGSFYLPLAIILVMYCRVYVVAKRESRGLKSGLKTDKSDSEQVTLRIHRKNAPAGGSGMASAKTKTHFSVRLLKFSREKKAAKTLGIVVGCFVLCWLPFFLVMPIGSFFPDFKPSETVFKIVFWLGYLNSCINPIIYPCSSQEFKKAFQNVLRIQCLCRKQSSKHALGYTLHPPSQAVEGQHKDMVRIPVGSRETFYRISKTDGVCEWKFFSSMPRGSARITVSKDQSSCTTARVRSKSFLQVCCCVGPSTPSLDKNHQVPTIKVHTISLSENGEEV
T1 sequence (P80457 2-1332): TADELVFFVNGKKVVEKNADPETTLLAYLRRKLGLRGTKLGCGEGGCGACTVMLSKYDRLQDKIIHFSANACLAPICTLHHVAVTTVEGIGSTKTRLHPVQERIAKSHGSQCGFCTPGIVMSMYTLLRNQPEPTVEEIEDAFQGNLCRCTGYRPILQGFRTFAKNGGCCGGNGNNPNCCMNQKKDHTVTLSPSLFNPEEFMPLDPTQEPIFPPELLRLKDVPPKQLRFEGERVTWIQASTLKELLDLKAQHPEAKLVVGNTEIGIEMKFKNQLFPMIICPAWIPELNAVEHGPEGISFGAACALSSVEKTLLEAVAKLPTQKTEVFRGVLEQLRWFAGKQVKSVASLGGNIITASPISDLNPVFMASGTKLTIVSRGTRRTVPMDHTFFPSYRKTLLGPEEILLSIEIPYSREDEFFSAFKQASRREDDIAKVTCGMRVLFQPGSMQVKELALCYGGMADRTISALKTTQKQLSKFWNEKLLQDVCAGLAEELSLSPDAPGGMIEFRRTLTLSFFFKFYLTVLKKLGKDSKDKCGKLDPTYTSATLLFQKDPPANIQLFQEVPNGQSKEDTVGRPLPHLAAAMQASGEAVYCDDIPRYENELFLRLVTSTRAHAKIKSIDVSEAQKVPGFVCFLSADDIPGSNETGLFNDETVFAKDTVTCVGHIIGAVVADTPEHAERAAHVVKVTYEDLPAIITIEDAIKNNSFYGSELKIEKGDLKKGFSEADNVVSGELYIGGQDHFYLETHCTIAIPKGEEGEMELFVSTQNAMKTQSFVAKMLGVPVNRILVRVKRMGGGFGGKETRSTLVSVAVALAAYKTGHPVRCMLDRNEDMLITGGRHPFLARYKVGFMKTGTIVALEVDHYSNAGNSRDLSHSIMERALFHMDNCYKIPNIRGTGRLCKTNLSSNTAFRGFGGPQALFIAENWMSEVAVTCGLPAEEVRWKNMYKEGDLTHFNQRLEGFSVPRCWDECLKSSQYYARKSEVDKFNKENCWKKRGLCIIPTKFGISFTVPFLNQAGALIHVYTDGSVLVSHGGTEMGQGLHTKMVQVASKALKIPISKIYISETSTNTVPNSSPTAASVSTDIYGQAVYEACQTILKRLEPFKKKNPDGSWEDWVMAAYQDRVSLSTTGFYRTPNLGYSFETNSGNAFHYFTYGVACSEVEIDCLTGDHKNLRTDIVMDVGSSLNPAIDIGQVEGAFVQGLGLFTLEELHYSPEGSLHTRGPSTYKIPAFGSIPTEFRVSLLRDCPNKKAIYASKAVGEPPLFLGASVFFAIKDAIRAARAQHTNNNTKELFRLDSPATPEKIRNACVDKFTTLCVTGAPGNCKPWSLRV
T5 sequence (P08172 whole entry): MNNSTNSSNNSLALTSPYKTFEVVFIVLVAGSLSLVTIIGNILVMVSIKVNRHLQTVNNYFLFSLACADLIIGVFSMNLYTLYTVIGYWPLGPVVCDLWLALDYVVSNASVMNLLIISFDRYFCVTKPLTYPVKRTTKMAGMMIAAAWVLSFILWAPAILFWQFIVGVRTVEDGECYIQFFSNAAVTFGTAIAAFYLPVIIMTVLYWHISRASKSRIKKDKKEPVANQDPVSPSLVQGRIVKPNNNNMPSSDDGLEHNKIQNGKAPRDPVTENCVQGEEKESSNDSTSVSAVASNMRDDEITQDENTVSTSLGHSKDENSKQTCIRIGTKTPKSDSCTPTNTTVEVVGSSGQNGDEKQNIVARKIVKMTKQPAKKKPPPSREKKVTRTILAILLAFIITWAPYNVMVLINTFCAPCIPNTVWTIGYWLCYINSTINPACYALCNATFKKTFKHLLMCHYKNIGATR
T18 sequence (P08588 whole entry): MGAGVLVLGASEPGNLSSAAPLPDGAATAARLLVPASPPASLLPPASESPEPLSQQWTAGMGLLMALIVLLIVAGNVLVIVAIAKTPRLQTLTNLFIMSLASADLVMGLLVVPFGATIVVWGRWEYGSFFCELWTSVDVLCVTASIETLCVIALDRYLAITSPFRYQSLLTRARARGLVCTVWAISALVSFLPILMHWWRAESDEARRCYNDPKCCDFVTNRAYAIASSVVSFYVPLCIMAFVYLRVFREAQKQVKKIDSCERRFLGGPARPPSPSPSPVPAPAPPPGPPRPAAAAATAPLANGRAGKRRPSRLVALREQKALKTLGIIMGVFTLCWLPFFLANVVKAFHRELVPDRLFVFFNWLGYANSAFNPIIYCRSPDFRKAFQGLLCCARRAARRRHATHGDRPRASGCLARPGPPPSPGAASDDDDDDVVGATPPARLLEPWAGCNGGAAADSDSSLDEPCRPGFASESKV
T15 sequence (Q9Y5N1 whole entry): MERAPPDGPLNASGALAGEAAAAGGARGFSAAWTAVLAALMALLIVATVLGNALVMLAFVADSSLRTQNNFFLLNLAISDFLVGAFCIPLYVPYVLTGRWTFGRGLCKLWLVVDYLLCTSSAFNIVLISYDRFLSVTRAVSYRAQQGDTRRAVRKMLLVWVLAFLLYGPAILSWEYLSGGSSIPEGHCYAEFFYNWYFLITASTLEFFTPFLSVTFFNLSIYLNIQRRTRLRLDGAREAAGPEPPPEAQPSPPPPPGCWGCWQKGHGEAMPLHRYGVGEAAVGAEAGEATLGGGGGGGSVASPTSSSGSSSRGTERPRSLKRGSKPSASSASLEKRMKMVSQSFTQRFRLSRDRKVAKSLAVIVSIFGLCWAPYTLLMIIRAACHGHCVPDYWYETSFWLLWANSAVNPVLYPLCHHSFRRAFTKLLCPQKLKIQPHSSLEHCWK
T10 sequence (Q99500 whole entry): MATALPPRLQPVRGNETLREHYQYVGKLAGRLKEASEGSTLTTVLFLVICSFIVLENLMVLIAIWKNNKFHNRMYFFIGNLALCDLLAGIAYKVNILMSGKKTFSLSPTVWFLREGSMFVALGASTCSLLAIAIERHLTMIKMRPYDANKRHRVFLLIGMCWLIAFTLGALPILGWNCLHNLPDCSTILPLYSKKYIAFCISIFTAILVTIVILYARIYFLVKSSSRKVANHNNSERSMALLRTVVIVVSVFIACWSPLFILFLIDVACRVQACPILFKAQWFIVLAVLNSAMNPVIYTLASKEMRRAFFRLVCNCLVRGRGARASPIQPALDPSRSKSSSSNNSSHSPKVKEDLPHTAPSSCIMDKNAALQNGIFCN
T2 sequence (Q92633 whole entry): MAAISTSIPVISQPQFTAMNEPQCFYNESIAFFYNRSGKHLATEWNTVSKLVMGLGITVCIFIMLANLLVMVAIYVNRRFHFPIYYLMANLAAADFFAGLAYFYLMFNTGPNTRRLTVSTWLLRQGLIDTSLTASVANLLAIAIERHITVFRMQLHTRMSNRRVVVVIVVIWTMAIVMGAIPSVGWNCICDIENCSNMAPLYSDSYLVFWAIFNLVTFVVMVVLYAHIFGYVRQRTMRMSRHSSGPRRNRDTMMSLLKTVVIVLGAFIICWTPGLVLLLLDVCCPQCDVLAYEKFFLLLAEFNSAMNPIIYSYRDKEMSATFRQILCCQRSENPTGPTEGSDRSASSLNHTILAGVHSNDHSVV
T19 sequence (P08913 whole entry): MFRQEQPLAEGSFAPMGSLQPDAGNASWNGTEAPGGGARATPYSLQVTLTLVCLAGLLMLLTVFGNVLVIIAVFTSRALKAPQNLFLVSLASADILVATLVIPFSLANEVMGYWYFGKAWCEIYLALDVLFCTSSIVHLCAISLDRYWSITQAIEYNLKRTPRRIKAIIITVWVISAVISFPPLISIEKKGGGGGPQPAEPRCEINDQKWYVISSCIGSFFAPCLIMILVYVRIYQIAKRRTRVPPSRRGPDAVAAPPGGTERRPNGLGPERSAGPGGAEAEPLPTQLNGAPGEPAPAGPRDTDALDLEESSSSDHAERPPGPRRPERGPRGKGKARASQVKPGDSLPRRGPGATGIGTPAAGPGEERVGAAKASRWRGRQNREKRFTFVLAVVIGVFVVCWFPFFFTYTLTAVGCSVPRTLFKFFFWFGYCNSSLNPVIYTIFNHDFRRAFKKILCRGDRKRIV

Structure (SMILES): O=C(OCc1ccc(OC(F)(F)F)cc1)N1C[C@@H]2CN(C(=O)c3ccc4[nH]nnc4c3)C[C@H]2C1 [Compound 13, (3aS,6aS)-5-(1H-Benzotriazole-5-carbonyl)-hexahydro-pyrrolo[3,4-c]pyrrole-2-carboxylic acid 4-trifluoromethoxy-benzyl ester]
- Sodium channel (site 2) (r) [% inhib] [1]: 49 % inhib
- Xanthine oxidase (b) [% inhib] [2]: 7 % inhib
- LPA1 receptor (h) [% inhib] [3]: -19 % inhib
- Cyclooxygenase 2 (h) [% inhib] [4]: 1 % inhib
- Mic CL m [5]: 10/10/10 µL/m/mg prot
- Somatostatin receptor 4 (h) [% inhib] [6]: 12 % inhib
- Muscarinic receptor M2 (h) [% inhib] [7]: -15 % inhib
- Alpha1A-adrenoreceptor (h) [% inhib] [8]: 6 % inhib
- CDK2 (h) [% inhib] [9]: 0 % inhib
- PCP receptor (r) [% inhib] [10]: -16 % inhib
- 5HT2B (h) [% inhib] [11]: -3 % inhib
- S1P2 (h), agonist mode [% pos ctrl] [12]: -2 % pos ctrl
- S1P3 (h), antago. mode [% inhib] [13]: 47 % inhib
- Norepinephrine transporter (h) [% inhib] [14]: 20 % inhib
- ACE (h) [% inhib] [15]: -25 % inhib
- Carbonic anhdrase II (h) [% inhib] [16]: -6 % inhib
- Ca2^+ channel (diltiazem site) (r) [% inhib] [17]: 9 % inhib
- Adenosine A1 respetor (h) [% inhib] [18]: 1 % inhib
- AUC(0-inf) [19, 28]: 260 µg·h/mL
- Cmax [19, 28]: 2980 ng/mL
- Tmax [19, 28]: 17 h
- half-life [19, 28]: 780 min
- AUC(0-inf) ([19]; plasma, iv bolus, 2 mg/kg): 21 µg·h/mL
- half-life ([19]; plasma, iv bolus, 2 mg/kg): 156 min
- clearance ([19]; plasma, iv bolus, 2 mg/kg, read-out: CLp): 1.6 mL/min/kg
- Vd ([19]; plasma, iv bolus, 2 mg/kg, read-out: Vdss): 0.3 L/kg
- AUC(0-inf) ([19]; plasma, oral gavage, 10 mg/kg): 130 µg·h/mL
- Cmax ([19]; plasma, oral gavage, 10 mg/kg): 17700 ng/mL
- Tmax ([19]; plasma, oral gavage, 10 mg/kg): 0.75 h
- half-life ([19]; plasma, oral gavage, 10 mg/kg): 276 min
- Oral F ([19]; food admix (FA), 20 mg/kg per day): 80%
- Oral F ([19]; oral gavage, 10 mg/kg): 80%
- HIV-1 protease (h) [% inhib] [20]: 0 % inhib
- S1P2 (h), antago. mode [% inhib] [21]: 45 % inhib
- Histamine H3 receptor (h) [% inhib] [22]: -10 % inhib
- ZAP70 (h) [% inhib] [23]: 9 % inhib
- Prostaglandin F receptor (h) [% inhib] [24]: 26 % inhib
- Beta1-adrenoreceptor (h) [% inhib] [25]: 2 % inhib
- Alpha2A-adrenoreceptor (h) [% inhib] [26]: 3 % inhib
- IC50 [27]: ~1.47 nM
